Consider 13 compounds from ChEMBL document CHEMBL1201862, “PubChem BioAssay data set” (2004).

Test systems include MOLT-4; NCI-H226; OVCAR-4; SF-268; Malme-3M; SNB-19; SN12C; LOX IMVI; U-251; OVCAR-8; SF-295; SNB-75; SK-MEL-28; COLO 205; UO-31; UACC-257; HCT-15.
Holding throughout (assay): DTP human tumour cell line panel, 48 h

Structures are written as SMILES.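 Growth conditions: 96-well plates. Treatment: test compound, 48 hours, 5 concentrations. Analysis: linear interpolation between bracketing concentrations; unreached endpoints set to highest concentration. GI50 marks 50% less growth.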 Activity calls are given as the source filed them. Cut-off read from the data, not from the text of the source: active = GI50 up to about 1.1 µM and inactive = higher.

Regarding `COC(=O)C1CCC2(CC1)NC(=O)NC2=O` (configuration not stated), the GI50 in the assay with MOLT-4, with NCI-H226, with OVCAR-4, in the assay with SF-268, with Malme-3M and in the assay with SNB-19 was > 100 µM (inactive) throughout. The GI50 in the assay with SN12C, in the assay on LOX IMVI, in the assay on U-251, in the assay on OVCAR-8, with SF-295 and in the assay with SNB-75 was > 100 µM (inactive) throughout. In addition, the GI50 in the assay on SK-MEL-28, in the assay on COLO 205, in the assay with UO-31 and in the assay on UACC-257 was > 100 µM (inactive) in each case.
`COc1cccc(NC(=O)C(=O)C(C(=O)c2ccccc2F)C2OC(=O)c3ccccc32)c1` (configuration not stated): the GI50 (usually the concentration giving 50% growth inhibition) in the assay on MOLT-4 was 25.4 µM (inactive); with NCI-H226 it was 28 µM (inactive); in the assay on OVCAR-4, 36.4 µM (inactive); in the assay on SF-268 it was 30.5 µM (inactive); in the assay on SNB-19, 24.9 µM (inactive); in the assay with SN12C it was 18.7 µM (inactive). Besides, the GI50 with LOX IMVI is 29.9 µM (inactive); in the assay with U-251, 15.5 µM (inactive); in the assay with OVCAR-8, 21.8 µM (inactive); in the assay with SF-295, 37.7 µM (inactive); in the assay with HCT-15 it was 28.7 µM; with SNB-75, 24.9 µM (inactive). For the same compound, the GI50 is 58.6 µM (inactive) in the assay with SK-MEL-28, 14.6 µM (inactive) in the assay with COLO 205, 34.4 µM (inactive) in the assay on UO-31 and > 100 µM (inactive) in the assay on UACC-257.
Turning to `CC1(C)OCC(C(O)C2OC(C)(C)OC2/C=N\O)O1` (configuration not stated), the GI50 with MOLT-4, in the assay on SF-268, in the assay on Malme-3M, in the assay with SNB-19, with LOX IMVI and in the assay on U-251 was > 100 µM (inactive) throughout. Besides, the GI50 in the assay on OVCAR-8, in the assay on SF-295, in the assay on SNB-75, in the assay on SK-MEL-28, with COLO 205 and in the assay with UO-31 was > 100 µM (inactive) throughout. The GI50 in the assay on UACC-257 is > 100 µM (inactive).
Regarding `CCCCCCCCSC(SCCCCCCCC)=C1C(=O)N(c2ccccc2)N=C1C`, the GI50 is 28.4 µM (inactive) in the assay with MOLT-4; 64.4 µM (inactive) with NCI-H226; > 100 µM (inactive) with SF-268; 53.6 µM (inactive) in the assay on Malme-3M; 30.3 µM (inactive) in the assay on SNB-19; 33.7 µM (inactive) in the assay with SN12C. In addition, the GI50 was 17.7 µM (inactive) in the assay on LOX IMVI; 17.5 µM (inactive) with U-251; 35.5 µM (inactive) with OVCAR-8; 36.9 µM (inactive) in the assay on SF-295; 37.7 µM with HCT-15; 41.8 µM (inactive) with SNB-75. Besides, the GI50 is > 100 µM (inactive) with SK-MEL-28, 24.7 µM (inactive) with COLO 205, 27.5 µM (inactive) in the assay with UO-31 and 30.5 µM (inactive) in the assay with UACC-257.
`CC1(C)C2C=CC1C(=O)CC2` (configuration not stated): the GI50 was > 100 µM (inactive) with MOLT-4; > 100 µM (inactive) in the assay with NCI-H226; > 100 µM (inactive) with OVCAR-4; > 100 µM (inactive) with SF-268; > 100 µM (inactive) in the assay on Malme-3M; 15.9 µM (inactive) with SNB-19. Moreover, the GI50 in the assay with LOX IMVI was > 100 µM (inactive); with U-251 it was > 100 µM (inactive); in the assay with OVCAR-8, > 100 µM (inactive); in the assay with SF-295, > 100 µM (inactive); in the assay on HCT-15 it was > 100 µM; in the assay on SNB-75, > 100 µM (inactive). The GI50 was > 100 µM (inactive) with SK-MEL-28, > 100 µM (inactive) in the assay with UO-31 and 49.9 µM (inactive) in the assay on UACC-257.
For `COC(=O)C(C(=O)C(=O)Nc1c(Cl)cc([N+](=O)[O-])cc1Cl)c1csc(-n2nc(C3=CCCCC3)cc2-c2ccccc2)n1` (configuration not stated), the GI50 in the assay on MOLT-4 was 52.2 µM (inactive); with NCI-H226 it was 25.4 µM (inactive); in the assay on OVCAR-4, > 100 µM (inactive); in the assay on SF-268, 71.8 µM (inactive); in the assay with Malme-3M, > 100 µM (inactive); with SNB-19 it was 37.3 µM (inactive). Further, the GI50 in the assay on SN12C was 67.9 µM (inactive); with LOX IMVI it was 43.9 µM (inactive); in the assay with U-251, > 100 µM (inactive); with OVCAR-8, 61.7 µM (inactive); with SF-295, 43.8 µM (inactive); with HCT-15, 36.2 µM. Further, the GI50 with SNB-75 is 30.7 µM (inactive); in the assay with COLO 205 it was 32.1 µM (inactive); with UO-31 it was 25.9 µM (inactive); with UACC-257, 46.6 µM (inactive).
For the compound `N#Cc1cnsc1`, the GI50 with MOLT-4, with NCI-H226, with OVCAR-4, in the assay on SF-268, with Malme-3M and in the assay with SN12C was > 100 µM (inactive) each time. For the same compound, the GI50 with LOX IMVI was > 100 µM (inactive); with U-251, > 100 µM (inactive); in the assay with OVCAR-8, > 100 µM (inactive); with SF-295, > 100 µM (inactive); in the assay with HCT-15, > 100 µM; with SNB-75, > 100 µM (inactive). Besides, the GI50 in the assay with SK-MEL-28, in the assay with COLO 205, in the assay with UO-31 and in the assay on UACC-257 was > 100 µM (inactive) in each case.
Turning to `COC(=O)/C(=C1\OC(=O)C(c2ccc(Cl)cc2)=C1O)c1ccc(Cl)cc1`, the GI50 was 22.5 µM (inactive) in the assay with MOLT-4; 21.8 µM (inactive) in the assay with NCI-H226; 9.71 µM (inactive) in the assay on OVCAR-4; 22.3 µM (inactive) with SF-268; 16.2 µM (inactive) in the assay with Malme-3M; 27.7 µM (inactive) in the assay with SNB-19. Also, the GI50 is 30.5 µM (inactive) in the assay with SN12C; 21.3 µM (inactive) with LOX IMVI; 24.3 µM (inactive) in the assay on U-251; 31.7 µM (inactive) in the assay with OVCAR-8; 19.2 µM (inactive) in the assay with SF-295; 22.8 µM (inactive) in the assay on SNB-75. Further, the GI50 in the assay with SK-MEL-28 is 31 µM (inactive); with COLO 205, 18.9 µM (inactive); in the assay with UO-31 it was 28.7 µM (inactive); with UACC-257, 16.5 µM (inactive).
On to `O=C(O/N=C1\CCCC\C1=C/c1ccccc1)c1ccc([N+](=O)[O-])cc1`, for which the GI50 with MOLT-4 was > 100 µM (inactive); in the assay on NCI-H226 it was > 100 µM (inactive); in the assay with OVCAR-4 it was 33.1 µM (inactive); in the assay on SF-268 it was > 100 µM (inactive); in the assay with Malme-3M it was > 100 µM (inactive); in the assay with SN12C, > 100 µM (inactive). For the same compound, the GI50 was > 100 µM (inactive) in the assay on LOX IMVI; 86.3 µM (inactive) with U-251; > 100 µM (inactive) with OVCAR-8; 69.8 µM (inactive) in the assay on SF-295; > 100 µM with HCT-15; 41.7 µM (inactive) in the assay with SNB-75. Further, the GI50 in the assay with SK-MEL-28 is > 100 µM (inactive); in the assay on COLO 205, > 100 µM (inactive); in the assay on UO-31, 98.4 µM (inactive).
In the case of `CC1CCC(C(C)C)C(O[C@@H]2OC(=O)C[C@@H]2Sc2ccccc2)C1` (some centres not stated), the GI50 in the assay with MOLT-4 is 12 µM (inactive); with OVCAR-4, 15.9 µM (inactive); in the assay with SF-268, 24.4 µM (inactive); in the assay on Malme-3M, 18.5 µM (inactive); in the assay with SNB-19, 35.1 µM (inactive); with SN12C, 16.8 µM (inactive). Besides, the GI50 is 13.1 µM (inactive) in the assay with LOX IMVI; > 10 µM (inactive) with U-251; 18.9 µM (inactive) in the assay with OVCAR-8; 21.1 µM (inactive) in the assay on SF-295; 19.5 µM with HCT-15; 33.3 µM (inactive) in the assay on SNB-75. In addition, the GI50 in the assay on SK-MEL-28 was 22.3 µM (inactive); in the assay on COLO 205, 18.5 µM (inactive); with UO-31 it was > 10 µM (inactive); with UACC-257, 16.3 µM (inactive).
As to `O=C(C/C(CCC(=O)N(Cc1ccccc1)Cc1ccccc1)=N/Nc1ccc([N+](=O)[O-])cc1[N+](=O)[O-])c1ccccc1`, the GI50 with MOLT-4 was 22.8 µM (inactive); with NCI-H226 it was > 100 µM (inactive); with OVCAR-4, 60.8 µM (inactive); in the assay on SF-268, 38.8 µM (inactive); with Malme-3M, > 100 µM (inactive); in the assay on SNB-19 it was > 100 µM (inactive). Moreover, the GI50 with LOX IMVI was 25.4 µM (inactive); in the assay with U-251 it was > 100 µM (inactive); with OVCAR-8 it was > 100 µM (inactive); in the assay on SF-295, > 100 µM (inactive); with HCT-15, 40.5 µM; with SNB-75, > 100 µM (inactive). Besides, the GI50 was > 100 µM (inactive) in the assay on SK-MEL-28, > 100 µM (inactive) in the assay with COLO 205, 35.2 µM (inactive) with UO-31 and > 100 µM (inactive) with UACC-257.
As for `OCC1=CC(NC2CC(CO)C(O)C(O)C2O)C(O)C(O)C1O` (configuration not stated), the GI50 was > 100 µM (inactive) in the assay on MOLT-4; 94.4 µM (inactive) in the assay with NCI-H226; > 100 µM (inactive) in the assay with Malme-3M; > 100 µM (inactive) in the assay on SNB-19; > 100 µM (inactive) in the assay with SN12C; > 100 µM (inactive) with LOX IMVI. The GI50 in the assay with U-251 is > 100 µM (inactive); with OVCAR-8 it was > 100 µM (inactive); in the assay with SF-295 it was > 100 µM (inactive); in the assay on HCT-15 it was > 100 µM; in the assay on SNB-75, > 100 µM (inactive); in the assay on SK-MEL-28, > 100 µM (inactive). For the same compound, the GI50 with COLO 205, in the assay with UO-31 and in the assay with UACC-257 was > 100 µM (inactive) throughout.
For the compound `Cc1c2ccncc2c(C)c2c1[nH]c1ccc(O)c(OCC(F)(F)F)c12`, the GI50 in the assay with MOLT-4 is 2.01 µM (inactive); in the assay with NCI-H226, 8.13 µM (inactive); in the assay with OVCAR-4 it was 4.08 µM (inactive); in the assay on SF-268, 8.67 µM (inactive); in the assay with Malme-3M, 11.9 µM (inactive); in the assay with SNB-19, 2.11 µM (inactive). Further, the GI50 in the assay on SN12C was 8.2 µM (inactive); in the assay with LOX IMVI, 1.38 µM (inactive); with U-251 it was 2.7 µM (inactive); in the assay with OVCAR-8, 3.03 µM (inactive); in the assay with SF-295 it was 5.21 µM (inactive); with SNB-75, 9.93 µM (inactive). In addition, the GI50 with SK-MEL-28 was 10.8 µM (inactive); in the assay with COLO 205, 11.9 µM (inactive); with UO-31 it was 9.66 µM (inactive); in the assay with UACC-257, 10.6 µM (inactive).
